Data as given in US8022068B2, “Substituted piperidines as renin inhibitors” (Novartis AG, priority 2008, dated 2011).

Molecular target: T1, renin (Homo sapiens, UniProt P00797)
T1 construct: This test measures the formation of angiotensin I in human plasma; from tissue; host or cells: human plasma
T1 sequence (P00797 67-406): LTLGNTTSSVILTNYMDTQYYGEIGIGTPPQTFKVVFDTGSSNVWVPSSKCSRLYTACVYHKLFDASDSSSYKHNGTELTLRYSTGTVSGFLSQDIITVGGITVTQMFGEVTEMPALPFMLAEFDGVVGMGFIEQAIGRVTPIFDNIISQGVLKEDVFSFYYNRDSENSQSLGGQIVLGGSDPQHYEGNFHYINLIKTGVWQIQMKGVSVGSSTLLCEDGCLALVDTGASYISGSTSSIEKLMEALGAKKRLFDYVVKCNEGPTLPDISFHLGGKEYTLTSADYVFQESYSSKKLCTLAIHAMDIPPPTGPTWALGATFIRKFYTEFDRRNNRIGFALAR
Assay: formation of angiotensin I in human plasma (Nussberger et al.), radioimmunoassay
Type: biochemical
Details: angiotensin I determined by radioimmunoassay, read-out: IC50, inhibition of the formation of angiotensin I
Description: The effect of renin inhibitors is detected inter alia experimentally by means of in vitro tests where the reduction in the formation of angiotensin I is measured in various systems (human plasma, purified human renin together with synthetic or natural renin substrate). The following in vitro test of Nussberger et al. (1987) J. Cardiovascular Pharmacol., Vol. 9, pp. 39-44, is used inter alia. This test measures the formation of angiotensin I in human plasma. The amount of angiotensin I formed is determined in a subsequent radioimmunoassay. The effect of inhibitors on the formation of angiotensin I is tested in this system by adding various concentrations of these substances. The IC50 is defined as the concentration of the particular inhibitor which reduces the formation of angiotensin I by 50%. The compounds of the present invention show inhibitory effects in the in vitro systems at minimal concentrations of about 10^−6 mol/l to about 10^−10 mol/l.

In the case of `COCCCN1CCOc2ccc(CO[C@H]3CN[C@@H](Cc4nncn4C)C[C@@H]3c3ccc(COC[C@@H](C)COC)cc3)cc21` [Example 8, 6-[(3R,4R,6R)-4-[4-((S)-3-Methoxy-2-methyl-propoxymethyl)-phenyl]-6-(4-methyl-4H-[1,2,4]triazol-3-ylmethyl)-piperidin-3-yloxymethyl]-4-(3-methoxy-propyl)-3,4-dihydro-2H-benzo[1,4]oxazine], the IC50 is reported as 0.1 to 10 nM.

Work on `COCCCN1CCOc2ccc(CO[C@H]3CN[C@@H](CN4CCOCC4)C[C@@H]3c3ccc(COC[C@@H](C)COC)cc3)cc21` [Example 10, 6-{(3R,4R,6R)-4-[4-((S)-3-Methoxy-2-methyl-propoxymethyl)-phenyl]-6-morpholin-4-ylmethyl-piperidin-3-yloxymethyl}-4-(3-methoxy-propyl)-3,4-dihydro-2H-benzo[1,4]oxazine] yielded an IC50 of 0.1 to 10 nM.
